In patent publication US10016376B2, “Composition for alleviating nephrotoxicity caused by immunosuppressive drug, comprising metformin, and composition for preventing or treating immune disease, comprising the same” (THE CATHOLIC UNIVERSITY OF KOREA INDUSTRY-ACADEMIC …, priority 2014, dated 2018):

Legend:
[1] = tested on: IFN-γ; assay: ELISA of IFN-γ secreted by allogeneic reactive T cells in mixed lymphocyte culture; type: cell-based, Balb/c; conditions: metformin 200 μM, 3 days
Procedure: (§1) To examine an effect of metformin and FK506 on the secretion of inflammatory cytokines by allogeneic reactive T cells, the allogeneic reactive T cells were treated with metformin (200 μM) or FK506 (1 nM or 100 nM) according to the experimental conditions, and then cultured for 3 days under the same in vitro allo-response conditions as in <Example 2>. Thereafter, levels of IFN-γ and IL-17 secreted by the T cells in the resulting culture broth were measured using ELISA (FIG. 5). The statistical analysis was carried out using a Graph prism (t-test, ANOVA), and the statistical significance was p<0.05. […] Thereafter, levels of IFN-γ and IL-17 secreted by the T cells in the resulting culture broth were measured using ELISA (FIG. 6). The statistical analysis was carried out using a Graph prism (t-test, ANOVA), and the statistical significance was p<0.05.

[2] = tested on: allogeneic reactive T cells; assay: mixed lymphocyte reaction (MLR), [3H]-thymidine uptake; type: cell-based, Balb/c; conditions: vs untreated Allo control
Procedure: To examine an immunomodulatory effect when T cells were co-treated with metformin and FK506 under in vitro allo-response conditions, an effect of metformin and FK506 on the proliferation of allogeneic reactive T cells was examined using a mixed lymphocyte culture method (i.e., a mixed lymphocyte reaction (MLR)) (FIG. 3). […] In this case, the T cells were treated separately or together with metformin (200 μM) or FK506 (1 nM or 100 nM) according to the experimental conditions, and then cultured for 3 days to stimulate an allogeneic response. On the last day of culture, [^3H]-thymidine was added, and the T cells were additionally cultured for 18 hours. Then, a level of [^3H]-thymidine uptake was measured using a liquid scintillation counter (Beckman, USA), and expressed as a cpm value. The statistical analysis was carried out using a Graph prism (t-test, ANOVA), and the statistical significance was p<0.05.

[3] = tested on: IL-6; assay: IL-6 secreted by LPS-stimulated splenocytes; type: cell-based, C57BL/6 mice; conditions: LPS 100 ng/ml, metformin 200 μM, FK506 100 nM, 3 days; vs control (LPS)
Procedure: (§2) Concentrations of TNF-α and IL-6 present in the resulting culture broth were measured to compare the drug effects (FIG. 10). Also, a concentration of immunoglobulins (IgG) present in the culture broth was measured in the same cell culture conditions to compare the drug effects (FIG. 11). The statistical analysis was carried out using a Graph prism (t-test, ANOVA), and the statistical significance was p<0.05.

[4] = tested on: immunoglobulins (IgG); assay: immunoglobulins (IgG) secreted by LPS-stimulated splenocytes; type: cell-based, C57BL/6 mice; conditions: LPS 100 ng/ml, metformin 200 μM, FK506 100 nM, 3 days; vs control (LPS)
Procedure: as §2

[5] = tested on: Treg cells; assay: flow cytometry of Treg activity under anti-CD3 T cell activation conditions; type: cell-based, C57BL/6 mice; conditions: 3 days; for Treg activity (ratio of Foxp3+CD25+ cells to CD4+ T cells): metformin 200 μM, FK506 100 nM, anti-CD3 1 μg/ml
Procedure: An effect of metformin and FK506 on the activity of Treg cells under T cell activation conditions (anti-CD3 conditions) was examined (FIGS. 8A and 8B). Splenocytes obtained from normal C57BL/6 mice were seeded in a 24-well plate at a density of 1×10^6 cells/ml, treated with metformin (200 μM) or FK506 (100 nM) according to the experimental conditions, and then cultured for 3 days under anti-CD3 activation conditions (1 μg/ml). For the analysis using a flow cytometer, the cells were treated with an anti-CD4-percp antibody and an anti-CD25-APC antibody, reacted at 4° C. for 30 minutes, permeabilized, reacted with an anti-Foxp3-PE antibody, and then analyzed using the flow cytometer. To analyze the Treg activity, cells expressing a CD4+CD25+Foxp3 marker were gated and analyzed. For the results, the ratio of Foxp3+CD25+ cells to the whole cultured CD4+ T cells was plotted on a bar graph. The statistical analysis was carried out using a Graph prism (t-test, ANOVA), and the statistical significance was p<0.05.

[6] = tested on: IL-17; assay: ELISA of IL-17 secreted by allogeneic reactive T cells in mixed lymphocyte culture; type: cell-based, Balb/c; conditions: metformin 200 μM, 3 days
Procedure: as §1

[7] = tested on: Splenocytes obtained from normal C57BL/6 mice; assay: MTT assay under T cell activation conditions (anti-CD3); conditions: metformin 200 μM, FK506 100 nM, 3 days, anti-CD3 1 μg/ml; vs control (aCD3)
Procedure: Splenocytes obtained from normal C57BL/6 mice were seeded in a 96-well plate at a density of 2×10^5 cells/ml, treated with metformin (200 μM) or FK506 (100 nM) according to the experimental conditions, and then cultured for 3 days under anti-CD3 activation conditions (1 μg/ml). In the MTT assay, a 3-(4,5dimethyl-thiazol-2-yl)-2,5-diphenyltetrazolium bromide compound was added before 4 hours of cell harvesting, and reacted for 4 hours. Thereafter, each well was treated with DMSO to measure the optical density at a wavelength of 540 nm.

[8] = tested on: TNF-α; assay: TNF-α secreted by LPS-stimulated splenocytes; type: cell-based, C57BL/6 mice; conditions: LPS 100 ng/ml, metformin 200 μM, FK506 100 nM, 3 days; vs control (LPS)
Procedure: as §2

[9] = blood concentration of FK506 in whole blood (LC/MS/MS); type: in vivo; conditions: Sprague-Dawley, rat, subcutaneous; rats, whole blood after 4 weeks; FK506 1.5 mg/kg s.c., with or without metformin 250 mg/kg oral
Procedure: Thereafter, a blood concentration of FK506 in the collected whole blood was measured using a mass spectrometer (API 3000 LC/MS/MS, Applied Biocystem, Foster City, Calif.).

[10] = metformin 200 μM, FK506 1 nM or 100 nM, 3 days

| SMILES | concentration of IFN-γ in the culture broth ([1]; CsA 10 nM or 100 nM) | concentration of IFN-γ in the culture broth ([1]; FK506 1 nM or 100 nM) | proliferation of T cells ([3H]-thymidine uptake) ([2]; Met 200 μM or 1,000 μM, CsA 10 nM or 100 nM, co-administered metformin 200 μM) | proliferation of T cells ([3H]-thymidine uptake) [2, 10] | concentration of IL-6 in the culture broth [3] | concentration of immunoglobulins (IgG) in the culture broth [4] | Treg activity (ratio of Foxp3+CD25+ cells to CD4+ T cells) [5] | Treg level/activity (ratio of Foxp3+CD25+ cells to CD4+ T cells) ([5]; metformin 1 mM, CsA 100 nM, anti-CD3) | concentration of IL-17 in the culture broth ([6]; CsA 10 nM or 100 nM) | concentration of IL-17 in the culture broth ([6]; FK506 1 nM or 100 nM) | cytotoxicity, optical density at 540 nm (MTT) [7] | concentration of TNF-α in the culture broth [8] | concentration at 4 weeks [9] |
| --- | --- | --- | --- | --- | --- | --- | --- | --- | --- | --- | --- | --- | --- |
| CN(C)C(=N)NC(=N)N [metformin, Metformin] | reduced | reduced | suppressed | suppressed | not highly reduced | not significantly changed | increased | increased | reduced | reduced | no big difference in optical densities | not highly reduced | – |
| C=CC[C@@H]1/C=C(\C)C[C@H](C)C[C@H](OC)[C@H]2O[C@@](O)(C(=O)C(=O)N3CCCC[C@H]3C(=O)O[C@H](/C(C)=C/[C@@H]3CC[C@@H](O)[C@H](OC)C3)[C@H](C)[C@@H](O)CC1=O)[C@H](C)C[C@@H]2OC [FK506, Tacrolimus] | – | reduced | – | remarkably reduced in a concentration-dependent manner | not highly reduced | not significantly changed | increased | – | – | reduced | – | not highly reduced | 10.2 ± 1.3 ng/mL |
